From US9512120B2, “Microbicidally active imidazopyridine derivatives” (Syngenta Participations AG, priority 2013, dated 2016) come the findings set out here.

The subject of series [1] is Puccinia recondita f. sp. Tritici. As to the kind of experiment: Puccinia recondita f. sp. tritici / wheat / leaf disc preventative (brown rust). The note with it: foliar, wheat leaf segments cv Kanzler, inoculated 1 day after application, assessed 7-9 days after application, read-out: control of Puccinia recondita f. sp. Tritici (percent disease control compared to untreated). It counts as in vivo. The essentials: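 Leaf segments of wheat cv Kanzler on agar were sprayed with formulated compound at 200 ppm and inoculated with spores 1 day later. Incubation was at 19° C, 75% relative humidity and 12/12 h light/dark. Activity was scored 7-9 days after application as percent disease control versus untreated.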

Series [2] has as its system Mycosphaerella arachidis (Cercospora arachidicola). As to the kind of experiment: Mycosphaerella arachidis (Cercospora arachidicola) / liquid culture (early leaf spot). The note with it: PDB, 24° C., 4-5 days after application, read-out: control of Mycosphaerella arachidis (inhibition of growth, photometric). It counts as cell-based. Put shortly:
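Conidia suspended in potato dextrose broth and added to test compound from DMSO solution at 200 ppm. Incubated at 24 °C; growth inhibition read photometrically 4-5 days after application.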

Series [3] relates to Pythium ultimum. As to the kind of experiment: Pythium ultimum / liquid culture (seedling damping off). It counts as cell-based. The settings on record: Globisporangium ultimum, potato dextrose broth, 24° C., 2-3 days after application, read-out: control of Pythium ultimum (inhibition of growth, photometric). The protocol:
Pythium ultimum/Liquid Culture (Seedling Damping Off) Mycelia fragments and oospores of a newly grown liquid culture of the fungus were directly mixed into nutrient broth (potato dextrose broth). After placing a DMSO solution of test compound into a 96-well format microtiter plate at an application rate of 200 ppm, the nutrient broth containing the fungal mycelia/spore mixture was added. The test plates were incubated at 24° C. and the inhibition of growth was determined photometrically 2-3 days after application.

The subject of series [4] is Glomerella lagenarium (Colletotrichum lagenarium). As to the kind of experiment: Glomerella lagenarium (Colletotrichum lagenarium) / liquid culture (anthracnose). The settings on record: Colletotrichum orbiculare, PDB, 24° C., 3-4 days after application, read-out: control of Glomerella lagenarium (inhibition of growth, photometric). It counts as cell-based. Put shortly:
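Cryopreserved conidia suspended in potato dextrose broth were added to compound in DMSO applied at 200 ppm. Plates incubated at 24° C; growth inhibition read photometrically 3-4 days after application.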

The subject of series [5] is Mycosphaerella graminicola (Septoria tritici). As to the kind of experiment: Mycosphaerella graminicola (Septoria tritici) / liquid culture (Septoria blotch). It counts as cell-based. The note with it: Zymoseptoria tritici, PDB, 24° C., 4-5 days after application, read-out: control of Mycosphaerella graminicola (inhibition of growth, photometric). Put shortly:
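Cryo-stored conidia in potato dextrose broth were added to compound in DMSO at 200 ppm in microtiter plates. Plates were incubated at 24 °C and growth inhibition was measured photometrically 4–5 days after application.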

Series [6] deals with Monographella nivalis (Microdochium nivale). As to the kind of experiment: Monographella nivalis (Microdochium nivale) / liquid culture (foot rot cereals). It counts as cell-based. The note with it: PDB, 24° C., 4-5 days after application, read-out: control of Monographella nivalis (inhibition of growth, photometric). The essentials:
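Cryostored conidia in potato dextrose broth were added to test compound dispensed from DMSO at 200 ppm. Plates were kept at 24° C, and growth inhibition was read photometrically 4-5 days after application.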

The subject of series [7] is Sclerotinia sclerotiorum. As to the kind of experiment: Sclerotinia sclerotiorum liquid culture (cottony rot / white mold). It counts as cell-based. The settings on record: PDB, 24° C., 3-4 days after application, read-out: control of Sclerotinia sclerotiorum (inhibition of growth, photometric). Put shortly:
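Mycelia fragments of Sclerotinia sclerotiorum in potato dextrose broth were added to compound in DMSO. Cultures incubated at 24° C; growth inhibition determined photometrically 3-4 days after application.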

The test system of series [8] is Thanatephorus cucumeris (Rhizoctonia solani). As to the kind of experiment: Thanatephorus cucumeris (Rhizoctonia solani) / liquid culture (foot rot, damping-off). It counts as cell-based. The note with it: PDB, 24° C., 3-4 days after application, read-out: control of Thanatephorus cucumeris (inhibition of growth, photometric). Put shortly:
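Mycelial fragments in potato dextrose broth exposed to test compounds at 200 ppm (from DMSO solution), incubated at 24° C. Growth inhibition read photometrically 3-4 days after application.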

Series [9] concerns Pyrenophora teres. As to the kind of experiment: Pyrenophora teres / barley / leaf disc preventative (net blotch). It counts as in vivo. The note with it: foliar, barley leaf segments cv Hasso, inoculated two days after application, assessed 5-7 days after application, read-out: control of Pyrenophora teres (disease control compared to untreated). Put shortly: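 Barley cv Hasso leaf segments on agar sprayed with compound at 200 ppm, inoculated with spores two days later. Kept at 20 °C, 65% RH, 12/12 h light; disease control versus untreated scored 5-7 days after application.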

Series [10] concerns Botryotinia fuckeliana (Botrytis cinerea). As to the kind of experiment: Botryotinia fuckeliana (Botrytis cinerea) / liquid culture (gray mould). It counts as cell-based. The settings on record: Vogels broth, 24° C., 3-4 days after application, read-out: control of Botryotinia fuckeliana (inhibition of growth, photometric). Put shortly: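 Botrytis cinerea conidia in Vogels broth were added to test compound applied from DMSO at 200 ppm. Incubation at 24 °C; growth inhibition read photometrically 3-4 days after application.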

For series [11], the system named is Phaeosphaeria nodorum (Septoria nodorum). As to the kind of experiment: Phaeosphaeria nodorum (Septoria nodorum) / wheat / leaf disc preventative (glume blotch). It counts as in vivo. The note with it: Parastagonospora nodorum, foliar, wheat leaf segments cv Kanzler, inoculated 2 days after application, assessed 5-7 days after application, read-out: control of Phaeosphaeria nodorum (percent disease control compared to untreated). Put shortly:
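Wheat leaf segments (cv Kanzler) on agar sprayed with compound at 200 ppm, inoculated with spores 2 days later. Incubated at 20° C., 75% relative humidity, 12/12 h light/dark; percent disease control versus untreated scored 5-7 days after application.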

In series [12] the test system is Gaeumannomyces graminis. As to the kind of experiment: Gaeumannomyces graminis / liquid culture (take-all of cereals). It counts as cell-based. The note with it: PDB, 24° C., 4-5 days after application, read-out: control of Gaeumannomyces graminis (inhibition of growth, photometric). Put shortly:
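Mycelial fragments in potato dextrose broth were exposed to compound from DMSO at 200 ppm in microtiter plates. Incubation at 24 °C; growth inhibition read photometrically 4-5 days after application.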

In series [13] the test system is Blumeria graminis f. Sp. Tritici (Erysiphe graminis f. Sp. Tritici). As to the kind of experiment: Blumeria graminis f. sp. tritici / wheat / leaf disc preventative (powdery mildew on wheat). It counts as in vivo. The settings on record: foliar, wheat leaf segments cv. Kanzler, inoculated 1 day after application, assessed 6-8 days after application, read-out: control of Blumeria graminis (percent disease control compared to untreated). On the procedure:
Blumeria graminis f. Sp. Tritici (Erysiphe graminis f. Sp. Tritici)/Wheat/Leaf Disc Preventative (Powdery Mildew on Wheat):
Wheat leaf segments cv. Kanzler were placed on agar in a 24-well plate and sprayed with the formulated test compound diluted in water at an application rate of 200 ppm. The leaf disks were inoculated by shaking powdery mildew infected plants above the test plates 1 day after application. The inoculated leaf disks were incubated at 20° C. and 60% relative humidity under a light regime of 24 h darkness followed by 12 h/12 h (dark/light) in a climate chamber and the activity of a compound was assessed as percent disease control compared to untreated when an appropriate level of disease damage appears on untreated check leaf segments (6-8 days after application). The following compounds gave at least 80% control of Blumeria graminis at 200 ppm when compared to untreated control leaf disks under the same conditions, which show extensive disease development: 2, 13, 23, 50, 59, 61, 67, 75, 85, 86, 89, 90, 93, 102, 103, 107, 134, 136, 137, 138, 139, 141, 145, 151, 153, 154, 163, 173, 174

In series [14] the test system is Plasmopara viticola. As to the kind of experiment: Plasmopara viticola / grape / leaf disc preventative. It counts as in vivo. The note with it: foliar, grape vine leaf disks, inoculated 1 day after application, assessed 6-8 days after application, read-out: control of Plasmopara viticola (percent disease control compared to untreated).

For the compound `CCn1c(-n2ncnc2N)nc2cncc(-c3ccccc3Cl)c21` [Compound 33, 2-[7-(2-chlorophenyl)-1-ethylimidazo[4,5-c]pyridin-2-yl]-1,2,4-triazol-3-amine], the pest or weed control at 200 ppm in series [1], in [9] and in series [11] was not below 80% in each case. Also, the inhibition at 20 ppm in [2], in series [3], in series [4], in series [5], in [6] and in series [7] was not below 80% each time. Further, the inhibition at 20 ppm in series [8] and in series [10] was not below 80% each time.
In the case of `CCn1c(-n2ncnc2N)nc2cncc(-c3ccc(Cl)cc3Cl)c21` [Compound 38, 2-[7-(2,4-dichlorophenyl)-1-ethylimidazo[4,5-c]pyridin-2-yl]-1,2,4-triazol-3-amine], the pest or weed control at 200 ppm in series [1], in series [9] and in [11] was not below 80% throughout. The inhibition at 20 ppm in series [2], in series [3], in [4], in [5], in [6] and in [7] was not below 80% each time. In addition, the inhibition at 20 ppm in [8], in series [10] and in [12] was not below 80% throughout.
As for `CCn1c(-n2ncnc2N)nc2cncc(-c3cc(F)ccc3F)c21` [Compound 39, 2-[7-(2,5-difluorophenyl)-1-ethylimidazo[4,5-c]pyridin-2-yl]-1,2,4-triazol-3-amine], the inhibition at 20 ppm in [2], in [3], in [4], in series [5], in [6] and in series [7] was not below 80% throughout. Besides, the inhibition at 20 ppm in series [8], in series [10] and in series [12] was not below 80% throughout. The pest or weed control at 200 ppm in [9] and in [11] was not below 80% each time.
As to `CCn1c(-n2ncnc2N)nc2cncc(-c3ccoc3)c21` [Compound 55, 2-[1-ethyl-7-(furan-3-yl)imidazo[4,5-c]pyridin-2-yl]-1,2,4-triazol-3-amine], the pest or weed control at 200 ppm in [1], in series [9] and in series [11] was not below 80% throughout. Further, the inhibition at 20 ppm in series [2], in [3], in series [4], in series [5], in series [6] and in series [8] was not below 80% in each case. The inhibition at 20 ppm in [10] and in [12] was not below 80% in each case.
Regarding `CCCc1cncc2nc(-n3ncnc3N)n(CC)c12` [Compound 73, 2-(1-ethyl-7-propylimidazo[4,5-c]pyridin-2-yl)-1,2,4-triazol-3-amine], the pest or weed control at 200 ppm in series [1], in series [9] and in series [11] was not below 80% each time. Besides, the inhibition at 20 ppm in [2], in [3], in [5], in series [6], in [7] and in series [8] was not below 80% throughout. Further, the inhibition at 20 ppm in series [10] and in [12] was not below 80% in each case.
For the compound `CCn1c(-n2ncnc2N)nc2cncc(-c3ccc(F)cc3F)c21` [Compound 80, 2-[7-(2,4-difluorophenyl)-1-ethylimidazo[4,5-c]pyridin-2-yl]-1,2,4-triazol-3-amine], the pest or weed control at 200 ppm in series [1], in series [9] and in series [11] was not below 80% in each case. In addition, the inhibition at 20 ppm in series [2], in [3], in series [4], in series [5], in [6] and in [7] was not below 80% throughout. The inhibition at 20 ppm in series [8], in series [10] and in series [12] was not below 80% in each case.
Take `CCn1c(-n2ncnc2N)nc2cncc(C(C)=NOCc3ccccc3F)c21` [Compound 137]: the melting point (usually the temperature of the solid-liquid transition) fell in the range of 159 to 171 °C. The pest or weed control at 200 ppm in [1] was not below 80%. Moreover, in series [4], the inhibition (usually how much of the control response was suppressed) at 20 ppm was not below 80%. Besides, in series [5], the inhibition at 20 ppm is not below 80%. Besides, the inhibition at 20 ppm in [6] was not below 80%. In addition, the pest or weed control at 200 ppm in [13] was not below 80%. For the same compound, the inhibition at 20 ppm in series [7] is not below 80%. Further, the inhibition at 20 ppm in series [8] is not below 80%. Further, the pest or weed control at 200 ppm in series [9] is not below 80%. Besides, the inhibition at 20 ppm in series [10] was not below 80%. In [11], the pest or weed control at 200 ppm is not below 80%. For the same compound, the inhibition at 20 ppm in series [12] was not below 80%. Besides, in series [14], the pest or weed control at 200 ppm is not below 80%.
As to `CCCc1cncc2nc(-n3ncnc3N)n(CCC)c12` [Compound 190, 2-(1,7-dipropylimidazo[4,5-c]pyridin-2-yl)-1,2,4-triazol-3-amine], the pest or weed control at 200 ppm in series [1], in [9] and in series [11] was not below 80% in each case. The inhibition at 20 ppm in series [3], in [5], in series [6], in series [7], in series [8] and in series [10] was not below 80% in each case. The inhibition at 20 ppm in [12] was not below 80%.
